Measurements reported in ChEMBL document CHEMBL1201862, “PubChem BioAssay data set” (2004).
The source made the active and inactive calls.

Columns and labels:
Apelin receptor = Apelin receptor (Homo sapiens, UniProt P35414); assay: apelin receptor antagonists, arrestin read-out – cell-based, luminescent, enzyme-fragment complementation, selectivity assay for CCR6 antagonist project, SAR follow-up (AID 588359); assay type: functional
[1] = target: T1, Short transient receptor potential channel 4 (Mus musculus, UniProt Q9QUQ5); assay: calcium entry via TRPC4 opening agents – cell-based, HEK293 TRPC4/mu-opioid, Fluo-4 calcium, dose response (AID 434937); assay type: functional
T1 sequence (Q9QUQ5 whole entry): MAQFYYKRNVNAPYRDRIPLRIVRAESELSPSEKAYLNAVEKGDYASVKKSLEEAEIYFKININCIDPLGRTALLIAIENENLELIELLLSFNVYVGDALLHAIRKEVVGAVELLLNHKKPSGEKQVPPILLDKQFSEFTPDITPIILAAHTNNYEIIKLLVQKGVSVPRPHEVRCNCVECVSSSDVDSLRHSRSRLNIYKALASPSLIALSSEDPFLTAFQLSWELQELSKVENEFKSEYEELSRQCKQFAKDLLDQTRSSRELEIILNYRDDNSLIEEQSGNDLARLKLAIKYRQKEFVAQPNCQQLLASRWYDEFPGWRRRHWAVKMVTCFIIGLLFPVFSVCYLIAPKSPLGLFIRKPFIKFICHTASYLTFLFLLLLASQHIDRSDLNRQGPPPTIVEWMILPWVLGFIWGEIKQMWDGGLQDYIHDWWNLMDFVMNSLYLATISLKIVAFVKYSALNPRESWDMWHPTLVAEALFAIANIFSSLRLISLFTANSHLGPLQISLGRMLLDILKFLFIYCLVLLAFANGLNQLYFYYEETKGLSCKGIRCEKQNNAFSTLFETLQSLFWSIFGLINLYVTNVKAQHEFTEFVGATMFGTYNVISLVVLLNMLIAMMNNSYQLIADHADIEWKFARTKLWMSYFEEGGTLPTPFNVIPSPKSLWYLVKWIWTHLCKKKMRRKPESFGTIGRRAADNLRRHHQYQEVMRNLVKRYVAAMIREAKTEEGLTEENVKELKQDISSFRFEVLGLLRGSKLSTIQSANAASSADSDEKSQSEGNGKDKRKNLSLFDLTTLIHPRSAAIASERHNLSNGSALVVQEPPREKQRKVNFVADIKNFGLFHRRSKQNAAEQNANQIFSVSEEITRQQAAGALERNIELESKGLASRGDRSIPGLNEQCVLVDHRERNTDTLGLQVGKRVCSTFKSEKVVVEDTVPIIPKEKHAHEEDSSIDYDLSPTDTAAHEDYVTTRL

[2] = target: T2, Replicative DNA helicase DnaB (Mycobacterium tuberculosis, UniProt P9WMR3); assay: DnaB intein splicing inhibitors, dose response, biochemical, cell-free fluorescence (AID 449749); assay type: functional
T2 sequence (P9WMR3 whole entry): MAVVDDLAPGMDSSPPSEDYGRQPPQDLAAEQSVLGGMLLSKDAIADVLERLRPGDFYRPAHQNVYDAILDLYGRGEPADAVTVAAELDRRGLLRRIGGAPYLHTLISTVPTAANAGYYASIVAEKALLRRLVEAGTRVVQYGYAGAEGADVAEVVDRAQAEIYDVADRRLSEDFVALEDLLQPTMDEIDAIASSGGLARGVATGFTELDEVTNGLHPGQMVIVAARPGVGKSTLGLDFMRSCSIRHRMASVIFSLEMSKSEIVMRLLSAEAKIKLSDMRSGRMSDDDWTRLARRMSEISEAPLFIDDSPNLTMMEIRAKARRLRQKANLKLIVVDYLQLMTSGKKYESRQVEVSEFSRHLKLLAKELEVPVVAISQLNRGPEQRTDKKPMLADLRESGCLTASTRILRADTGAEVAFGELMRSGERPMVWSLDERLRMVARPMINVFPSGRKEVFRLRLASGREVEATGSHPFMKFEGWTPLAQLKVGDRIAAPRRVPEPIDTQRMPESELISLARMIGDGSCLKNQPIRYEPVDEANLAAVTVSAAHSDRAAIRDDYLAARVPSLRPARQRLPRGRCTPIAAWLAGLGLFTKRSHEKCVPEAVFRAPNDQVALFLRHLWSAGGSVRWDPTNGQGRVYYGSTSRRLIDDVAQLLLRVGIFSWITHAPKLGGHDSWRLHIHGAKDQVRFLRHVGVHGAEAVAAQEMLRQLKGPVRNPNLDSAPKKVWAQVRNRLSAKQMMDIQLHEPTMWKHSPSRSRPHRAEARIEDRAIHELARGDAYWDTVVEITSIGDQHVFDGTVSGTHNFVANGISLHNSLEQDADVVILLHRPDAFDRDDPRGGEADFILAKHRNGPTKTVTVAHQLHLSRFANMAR

[3] = tested on: Streptococcus sp. 'group A'; assay: Streptococcus pyogenes SK(-)GAS viability under kanamycin – luminescence, BacTiterGlo, confirmation, counter-screen for streptokinase expression inhibitor project, dose response (AID 1900); assay type: functional, organism-based
Protein RecA = target: T3, Protein RecA (Mycobacterium tuberculosis, UniProt P9WHJ3); assay: Fluorescence Cell-Free Homogeneous Dose Retest to Identify Inhibitors of RecA-Intein Splicing Activity. [Related pubchem assays (depositor defined):AID2097, AID2223, AID489010, AID492950]; assay type: functional
T3 sequence (P9WHJ3 whole entry): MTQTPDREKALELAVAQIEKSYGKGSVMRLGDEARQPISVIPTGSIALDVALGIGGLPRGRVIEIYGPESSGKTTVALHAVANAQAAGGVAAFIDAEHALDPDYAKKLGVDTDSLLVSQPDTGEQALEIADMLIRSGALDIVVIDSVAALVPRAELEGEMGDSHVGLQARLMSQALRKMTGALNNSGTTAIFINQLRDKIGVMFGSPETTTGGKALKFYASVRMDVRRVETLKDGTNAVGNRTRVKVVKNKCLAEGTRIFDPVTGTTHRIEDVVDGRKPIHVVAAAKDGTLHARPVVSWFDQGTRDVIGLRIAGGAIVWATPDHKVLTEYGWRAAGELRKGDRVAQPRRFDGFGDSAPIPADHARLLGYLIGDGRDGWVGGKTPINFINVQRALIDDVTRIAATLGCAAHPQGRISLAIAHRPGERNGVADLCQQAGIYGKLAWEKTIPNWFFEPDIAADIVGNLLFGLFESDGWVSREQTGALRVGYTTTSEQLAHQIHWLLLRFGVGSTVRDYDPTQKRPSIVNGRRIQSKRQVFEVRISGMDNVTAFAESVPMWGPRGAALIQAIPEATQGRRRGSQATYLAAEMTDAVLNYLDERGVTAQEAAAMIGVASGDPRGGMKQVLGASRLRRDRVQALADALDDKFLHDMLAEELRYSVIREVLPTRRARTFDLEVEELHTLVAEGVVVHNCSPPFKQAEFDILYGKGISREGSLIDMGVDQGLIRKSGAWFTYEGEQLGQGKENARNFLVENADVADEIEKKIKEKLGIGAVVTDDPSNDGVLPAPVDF

Streptococcus = assay: GAS UMAA2166 growth inhibition – luminescence, BacTiterGlo, counter-screen for streptokinase expression inhibitor project, dose response (AID 1915); assay type: functional, organism-based;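 note: potency for reduction of bacterial viability or growth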
Beta-galactosidase = Beta-galactosidase (Escherichia coli, UniProt Q8VNN2); assay: detection-enzyme interference by beta-gal modulators – biochemical, E. coli enzyme, set 3, artefact control for CCR6 antagonist project, dose response (AID 504712); assay type: functional
Beta-galactosidase, sequence (Q8VNN2 whole entry): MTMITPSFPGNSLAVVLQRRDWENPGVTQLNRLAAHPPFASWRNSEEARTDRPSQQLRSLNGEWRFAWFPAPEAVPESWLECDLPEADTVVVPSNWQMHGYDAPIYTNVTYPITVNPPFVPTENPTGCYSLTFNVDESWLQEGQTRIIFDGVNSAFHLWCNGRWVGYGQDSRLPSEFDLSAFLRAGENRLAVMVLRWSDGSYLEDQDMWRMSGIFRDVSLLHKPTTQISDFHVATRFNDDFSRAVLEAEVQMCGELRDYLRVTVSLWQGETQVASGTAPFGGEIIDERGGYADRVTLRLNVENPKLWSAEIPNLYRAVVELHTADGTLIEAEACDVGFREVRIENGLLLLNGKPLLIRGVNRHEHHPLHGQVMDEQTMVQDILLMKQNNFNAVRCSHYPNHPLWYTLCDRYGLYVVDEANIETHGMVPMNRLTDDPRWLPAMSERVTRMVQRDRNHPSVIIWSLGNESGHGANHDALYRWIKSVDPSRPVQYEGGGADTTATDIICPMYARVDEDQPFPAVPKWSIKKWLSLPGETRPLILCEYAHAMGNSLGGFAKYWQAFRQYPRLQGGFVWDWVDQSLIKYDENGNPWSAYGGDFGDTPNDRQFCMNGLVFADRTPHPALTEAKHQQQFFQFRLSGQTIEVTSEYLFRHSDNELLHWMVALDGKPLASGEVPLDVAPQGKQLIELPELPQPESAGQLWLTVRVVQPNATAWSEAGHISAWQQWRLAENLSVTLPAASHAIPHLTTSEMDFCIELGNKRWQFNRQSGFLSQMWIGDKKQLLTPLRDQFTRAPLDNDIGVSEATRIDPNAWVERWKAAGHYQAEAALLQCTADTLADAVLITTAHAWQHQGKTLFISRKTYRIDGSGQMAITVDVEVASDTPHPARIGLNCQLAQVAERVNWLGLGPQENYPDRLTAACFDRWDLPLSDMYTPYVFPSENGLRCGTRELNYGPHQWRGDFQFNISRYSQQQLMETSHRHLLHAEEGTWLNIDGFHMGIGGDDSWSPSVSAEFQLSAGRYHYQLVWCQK

[4] = decrease of insulin promoter-GFP reporter – imaging, high-content screening, mouse beta cells (AID 1628); assay type: functional; details: MIN6
[5] = MIN6 cell viability loss – mouse insulinoma, cytotoxicity control, dose response (AID 2122); assay type: functional;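 note: confirmatory high-throughput counterscreen run to flag cytotoxic compounds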
CAAX prenyl protease 2 [6] = target: T4, CAAX prenyl protease 2 (Saccharomyces cerevisiae S288c, UniProt Q03530); assay type: biochemical
T4 sequence (Q03530 whole entry): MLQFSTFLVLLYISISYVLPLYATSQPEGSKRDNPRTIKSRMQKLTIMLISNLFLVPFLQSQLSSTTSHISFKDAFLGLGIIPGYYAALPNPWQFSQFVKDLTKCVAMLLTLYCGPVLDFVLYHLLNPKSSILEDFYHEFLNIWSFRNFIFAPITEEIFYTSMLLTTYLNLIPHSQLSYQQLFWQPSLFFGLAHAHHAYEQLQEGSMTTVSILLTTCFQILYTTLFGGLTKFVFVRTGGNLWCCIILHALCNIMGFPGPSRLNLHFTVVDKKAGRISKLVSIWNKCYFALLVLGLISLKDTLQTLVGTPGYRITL

CAAX prenyl protease 2 [7] = target: CAAX prenyl protease 2 (Homo sapiens, UniProt Q9Y256); assay: inhibition of Ras-converting CAAX protease Rce1 – biochemical, yeast membranes, quenched-peptide fluorescence, cherry-pick, dose response (AID 588849)
CAAX prenyl protease 2 (Homo sapiens, UniProt Q9Y256), sequence (Q9Y256 whole entry): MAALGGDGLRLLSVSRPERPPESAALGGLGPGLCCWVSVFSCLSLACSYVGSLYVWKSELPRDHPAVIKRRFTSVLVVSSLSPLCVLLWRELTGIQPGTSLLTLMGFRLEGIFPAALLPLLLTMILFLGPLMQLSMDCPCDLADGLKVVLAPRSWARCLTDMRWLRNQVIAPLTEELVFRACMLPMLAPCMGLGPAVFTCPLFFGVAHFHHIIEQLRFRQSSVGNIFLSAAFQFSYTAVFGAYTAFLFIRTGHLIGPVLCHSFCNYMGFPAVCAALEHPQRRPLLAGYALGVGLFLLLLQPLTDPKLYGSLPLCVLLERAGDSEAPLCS

Nonstructural protein 1 = Nonstructural protein 1 (Influenza A virus, UniProt Q194T2); assay type: functional, Influenza A virus (A/California/07/2009(H1N1))
Nonstructural protein 1, sequence (Q194T2 whole entry): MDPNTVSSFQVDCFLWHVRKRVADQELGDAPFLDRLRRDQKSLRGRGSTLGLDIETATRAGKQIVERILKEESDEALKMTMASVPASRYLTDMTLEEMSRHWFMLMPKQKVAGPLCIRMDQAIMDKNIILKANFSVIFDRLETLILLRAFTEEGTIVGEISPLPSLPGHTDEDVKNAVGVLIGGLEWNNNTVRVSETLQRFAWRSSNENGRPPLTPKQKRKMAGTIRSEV

[8] = Luminescence Cell-Based Dose Retest to Confirm Inhibitors of Cancer Stem Cells. [Related pubchem assays (depositor defined):AID2717, AID2721]; assay type: functional; details: Homo sapiens
Exodeoxyribonuclease V = Exodeoxyribonuclease V (Escherichia coli (strain K12), UniProt P04993+P07648+P08394); assay: RecBCD inhibition via phage-restricted bacterial growth – absorbance, V66 E. coli, mutant T4 phage, counter-screen for AddAB inhibitor project, dose response (AID 492957); assay type: functional, cell-based, Escherichia coli str. K-12 substr. MG1655
Exodeoxyribonuclease V, sequence (P04993 whole entry): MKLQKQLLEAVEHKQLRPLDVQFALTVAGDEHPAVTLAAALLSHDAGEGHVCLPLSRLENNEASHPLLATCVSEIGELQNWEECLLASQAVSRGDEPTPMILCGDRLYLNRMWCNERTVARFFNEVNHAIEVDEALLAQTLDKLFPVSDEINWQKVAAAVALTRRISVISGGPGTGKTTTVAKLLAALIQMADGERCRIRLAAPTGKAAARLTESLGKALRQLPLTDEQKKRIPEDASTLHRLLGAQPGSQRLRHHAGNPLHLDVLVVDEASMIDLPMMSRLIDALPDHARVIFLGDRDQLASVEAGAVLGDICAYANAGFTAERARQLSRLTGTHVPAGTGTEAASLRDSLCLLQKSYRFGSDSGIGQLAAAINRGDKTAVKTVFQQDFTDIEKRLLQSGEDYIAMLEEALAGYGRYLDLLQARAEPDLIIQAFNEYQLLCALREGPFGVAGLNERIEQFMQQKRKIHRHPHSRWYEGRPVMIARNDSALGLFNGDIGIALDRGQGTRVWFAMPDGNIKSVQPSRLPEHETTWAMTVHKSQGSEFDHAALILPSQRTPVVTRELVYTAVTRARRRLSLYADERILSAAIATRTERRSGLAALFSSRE
Exodeoxyribonuclease V, sequence (P07648 whole entry): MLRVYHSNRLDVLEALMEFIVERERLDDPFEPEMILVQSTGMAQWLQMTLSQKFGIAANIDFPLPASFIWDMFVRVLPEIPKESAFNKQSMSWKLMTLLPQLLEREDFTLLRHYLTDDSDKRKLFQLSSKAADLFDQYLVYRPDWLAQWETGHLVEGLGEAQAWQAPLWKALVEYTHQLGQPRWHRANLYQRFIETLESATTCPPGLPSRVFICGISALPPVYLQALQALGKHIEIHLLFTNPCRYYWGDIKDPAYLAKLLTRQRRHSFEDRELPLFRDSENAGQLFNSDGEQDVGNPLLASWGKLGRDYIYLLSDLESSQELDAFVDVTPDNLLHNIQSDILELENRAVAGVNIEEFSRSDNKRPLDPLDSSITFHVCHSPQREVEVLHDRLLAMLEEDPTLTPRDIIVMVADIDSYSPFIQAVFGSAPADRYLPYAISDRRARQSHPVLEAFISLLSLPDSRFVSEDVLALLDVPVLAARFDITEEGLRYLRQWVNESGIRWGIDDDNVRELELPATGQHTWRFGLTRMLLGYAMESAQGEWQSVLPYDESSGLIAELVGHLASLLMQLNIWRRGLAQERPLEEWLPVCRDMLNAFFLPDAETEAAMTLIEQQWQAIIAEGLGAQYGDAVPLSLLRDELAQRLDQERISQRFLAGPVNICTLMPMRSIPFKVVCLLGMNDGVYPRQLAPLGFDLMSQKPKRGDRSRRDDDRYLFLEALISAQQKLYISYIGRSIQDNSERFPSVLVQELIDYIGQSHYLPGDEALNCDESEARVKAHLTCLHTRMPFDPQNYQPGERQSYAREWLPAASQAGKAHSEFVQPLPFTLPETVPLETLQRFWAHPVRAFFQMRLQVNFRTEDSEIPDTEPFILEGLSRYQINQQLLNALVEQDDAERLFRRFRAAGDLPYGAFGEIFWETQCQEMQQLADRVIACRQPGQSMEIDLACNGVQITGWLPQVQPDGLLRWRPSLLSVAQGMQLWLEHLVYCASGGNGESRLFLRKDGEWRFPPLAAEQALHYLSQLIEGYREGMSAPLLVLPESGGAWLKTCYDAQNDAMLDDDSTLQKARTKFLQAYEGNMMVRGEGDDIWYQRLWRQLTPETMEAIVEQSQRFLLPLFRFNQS
Exodeoxyribonuclease V, sequence (P08394 whole entry): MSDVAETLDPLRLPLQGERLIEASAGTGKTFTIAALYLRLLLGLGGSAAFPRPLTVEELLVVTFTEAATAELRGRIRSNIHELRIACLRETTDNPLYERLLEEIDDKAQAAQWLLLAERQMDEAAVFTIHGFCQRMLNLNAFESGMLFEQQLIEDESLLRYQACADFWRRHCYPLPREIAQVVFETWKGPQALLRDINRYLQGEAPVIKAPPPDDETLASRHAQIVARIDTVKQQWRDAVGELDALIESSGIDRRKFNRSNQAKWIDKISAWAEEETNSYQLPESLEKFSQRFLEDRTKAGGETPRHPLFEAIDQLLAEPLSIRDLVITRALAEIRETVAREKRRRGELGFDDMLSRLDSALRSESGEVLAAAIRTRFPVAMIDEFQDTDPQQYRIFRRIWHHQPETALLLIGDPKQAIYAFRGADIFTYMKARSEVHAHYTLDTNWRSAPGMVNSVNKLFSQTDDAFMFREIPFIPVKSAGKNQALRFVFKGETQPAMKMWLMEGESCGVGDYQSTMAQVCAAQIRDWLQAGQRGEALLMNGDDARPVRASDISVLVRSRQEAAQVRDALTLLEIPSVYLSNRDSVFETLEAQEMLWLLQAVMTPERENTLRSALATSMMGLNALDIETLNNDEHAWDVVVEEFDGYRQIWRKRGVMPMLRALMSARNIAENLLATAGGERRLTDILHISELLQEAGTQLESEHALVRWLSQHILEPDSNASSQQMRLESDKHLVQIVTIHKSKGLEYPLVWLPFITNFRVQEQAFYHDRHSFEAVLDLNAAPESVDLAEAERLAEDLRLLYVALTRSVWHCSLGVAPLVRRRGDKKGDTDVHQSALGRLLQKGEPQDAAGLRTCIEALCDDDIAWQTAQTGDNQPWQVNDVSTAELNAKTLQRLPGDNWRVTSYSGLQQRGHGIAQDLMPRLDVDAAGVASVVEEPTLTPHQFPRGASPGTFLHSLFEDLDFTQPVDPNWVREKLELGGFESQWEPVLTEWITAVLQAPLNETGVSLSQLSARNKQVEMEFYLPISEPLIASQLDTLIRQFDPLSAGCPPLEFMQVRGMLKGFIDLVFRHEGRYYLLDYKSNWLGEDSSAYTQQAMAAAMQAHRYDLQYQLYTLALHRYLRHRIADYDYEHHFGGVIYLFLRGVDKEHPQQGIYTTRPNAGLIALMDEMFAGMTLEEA

[9] = Counterscreen for AddAB inhibitors: absorbance-based bacterial cell-based high throughput dose response assay for inhibitors of bacterial viability. [Related pubchem assays (depositor defined):AID435030, AID449728, AID449731, AID488942, AID488955, AID488956]; assay type: functional
BJ = assay: growth inhibition of engineered Ras-driven BJ cells – cell-based, alamar blue fluorescence, cherrypicked samples, dose response (AID 2631); assay type: functional; details: Homo sapiens;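 note: confirmatory dose-response assay in RAS-dependent BJ fibroblasts engineered with TERT, LT and ST, with cytotoxicity read by fluorescence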
INS1 = assay: INS-1E survival protection against cytokine death – cell-based, luminescence, retest, dose response (AID 449756); assay type: functional; details: Rattus norvegicus;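 note: cell death triggered by IL-1 beta plus TNF-alpha plus IFN-gamma mixture; protective hits raise ATP signal compared with cytokine alone wells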

Apelin receptor, sequence (P35414 whole entry, the tested form may be a part): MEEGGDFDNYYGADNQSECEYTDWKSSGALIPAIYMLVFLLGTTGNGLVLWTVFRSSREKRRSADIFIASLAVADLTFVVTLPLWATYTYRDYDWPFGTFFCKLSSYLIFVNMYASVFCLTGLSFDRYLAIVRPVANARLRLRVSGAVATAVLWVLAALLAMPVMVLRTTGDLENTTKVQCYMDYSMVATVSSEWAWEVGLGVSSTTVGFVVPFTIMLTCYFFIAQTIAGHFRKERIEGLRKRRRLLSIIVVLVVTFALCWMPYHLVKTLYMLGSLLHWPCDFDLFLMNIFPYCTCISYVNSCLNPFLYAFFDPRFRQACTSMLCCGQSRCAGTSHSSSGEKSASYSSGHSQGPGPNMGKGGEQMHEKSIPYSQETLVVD

Which IC50 (Apelin receptor) does the source give for `COC(=O)C1=NN(C(=O)c2cccc(Br)c2)C(O)(c2ccc(Cl)cc2)C1` (configuration not stated) here?
Its IC50 is 12.1 µM (active).

And the EC50 [1]?
Its EC50 is 5.31 µM (active).

What about the AC50 [2] of the same compound?
Its AC50 is > 380 µM (inactive).

What about the EC50 [3] of the same compound?
The EC50 was 2.9 µM (active).

And the EC50 (Protein RecA)?
The EC50 was 13.7 µM (active).

What about the EC50 (Streptococcus) of the same compound?
The EC50 was 3.87 µM (active).

And the IC50 (Beta-galactosidase)?
Its IC50 is > 66.6 µM (inactive).

Which IC50 [4] does the source give for `Cc1nn(C)c(C)c1CNC(=O)c1cc2n(n1)C(C(F)(F)F)CC(c1cccs1)N2` (configuration not stated) here?
The IC50 was 1.94 µM (active).

What about the IC50 [5] of the same compound?
Its IC50 is 1.11 µM (active).

Which AC50 (CAAX prenyl protease 2 [6]) does the source give for `CCOc1ccc2nc(O)c(CN(CCN3CCOCC3)Cc3nnnn3C(C)(C)CC)cc2c1` here?
The AC50 was > 100 µM (inactive).

And the AC50 (CAAX prenyl protease 2 [7])?
The AC50 was 7.54 µM (active).

With `COc1cccc(/C=N/Nc2ncnc(Cl)c2N)c1O` as the compound, how does the IC50 (Nonstructural protein 1) read?
The IC50 was 3.65 µM (active).

What about the AC50 [8] of the same compound?
The AC50 was 2.96 µM (active).

What about the IC50 (Exodeoxyribonuclease V) of the same compound?
Its IC50 is > 119 µM (inactive).

What about the IC50 [9] of the same compound?
Its IC50 is > 119 µM (inactive).

And the EC50 (BJ)?
Its EC50 is 1.27 µM (inconclusive).

And the AC50 (INS1)?
Its AC50 is 1.02 µM (active).
